According to PubChem BioAssay AID2060895 (Molecular Pharmacology Branch, DTP, NCI, 2025):
Several values for one entry are separate records, joined by “and”; a condition that tells them apart may be missing. Identical values can stand only once.

System: PDC 899932-113-R3-J6 complex spheroid viability
Experiment: Anticancer human tumor 899932-113-R3-J6-PDC patient-derived melanoma cell line growth inhibition [RAS]
Settings: for viability, T/C: stronger effect = lower value
Source text: RAS pathway inhibitors in Combinations in Complex Spheroids
A high-throughput screen of multi-cell type tumor spheroids was designed to identify active combinations of RAS pathway inhibitors and targeted small molecules. Complex spheroids include a stromal component modeled by human endothelial cells (HUVEC) and fibroblasts modeled by human mesenchymal stem cells (MSCs). The concentration ranges selected for each drug and investigational agent were based upon clinically achievable concentrations if the clinical Cmax of the agent was known.
Compounds. The drugs and investigational agents: abemaciclib (NSC768073), cobimetinib (NSC768068), divarasib (GDC6063, NSC841802), docetaxel (NSC628503), GDC-1971 (RLY-1971, NSC841576), gemcitabine (NSC613327), inavolisib (NSC800729), ipatasertib (NSC767898), KB-0742 (NSC834161), MRTX-1133 (NSC836407), osimertinib (NSC779217), RMC-4630 (NSC839698), RMC-6236 (NSC851965), RMC-6291 (NSC852671), Ro-3306 (NSC812927), sapanisertib (NSC764658), SN-38 (NSC673596), staurosporine (NSC755774), SY5609 (NSC837396), and tovorafenib (DAY101, NSC766906), were obtained from the National Cancer Institute (NCI) Developmental Therapeutics Program Chemical Repository. The FDA-approved anticancer drug set is available from the NCI Developmental Therapeutics Program. […] The stock solutions were prepared in dimethyl sulfoxide (DMSO, Sigma-Aldrich, St. Louis, MO, cat. D2650) at 800-fold the tested concentration and stored at -70 degrees C prior to their use. All drugs and investigational agents were tested over a range starting from a high concentration at or near the clinical Cmax and decreasing in half-log increments. If the clinical Cmax for an agent had not been determined, the highest concentration tested was 10 microM.
Cell Culture. All cells were maintained in an incubator at 37 degrees C and 5% CO2 with 95% humidity. The PDC lines were cultured according to standard operating procedures established by the NCI PDMR. All PDCs were thawed and cultured in Matrigel-coated flasks prepared with a working solution of 1X Ham's F-12 nutrient mix, without supplementation (Invitrogen, Waltham, MA, cat. 11765054), 100 U/mL penicillin-streptomycin (Invitrogen, cat. 15140122), and 2.5% Matrigel (Corning Inc., Corning, NY, cat. 354248) for the first three passages. The 362531-283-R-J2-PDC and 782815-120-R-J1-PDC lines were cultured in 6C/Colon 1B media, which includes advanced DMEM/F-12 (Thermo Fisher Scientific, cat. 12634028), 10 mM HEPES (Thermo Fisher Scientific, cat. 15630080), 1X GlutaMAX supplement (Thermo Fisher Scientific, cat. 35050061), 0.1 mg/mL primocin (InvivoGen, San Diego, CA, cat. ant-pm-2), 10% defined fetal bovine serum, heat inactivated (HyClone Laboratories Inc., Logan, UT, cat. SH30070.03HI), 50% L-WRN conditioned media (ATCC, cat. CRL-3276), 1.25 mM N-Acetyl-L-cysteine (Sigma-Aldrich, cat. A9165), 10 mM nicotinamide (Sigma-Aldrich, cat. N0636), 1X B-27 supplement (Thermo Fisher Scientific, cat. 17504044), 1X N-2 supplement (Thermo Fisher Scientific, cat. 17502048), 50 ng/mL human EGF (Thermo Fisher Scientific, cat. PHG0311), and 10 microM Y-27632 dihydrochloride (Tocris Bioscience, cat. 1254). The K12877-001-R-J1-PDC line was cultured in 6I media, which includes all 6C/Colon 1B media plus 10 ng/mL human FGF-10 (PeproTech, cat. 100-26), 1 ng/mL human FGF-2 (PeproTech, cat. 100-18B), 1 µM prostaglandin E2 (Tocris Bioscience, cat. 2296), […] hydrocortisone (Sigma-Aldrich, cat. H4001), and […] bovine insulin (Sigma-Aldrich, cat. I6634). The K86415-001-R-J1-PDC line was cultured in 6D media, which includes all 6C/Colon 1B media components minus the L-WRN conditioned media. The 485176-168-R4-J1-PDC was cultured in PANC media, which includes all 6C/Colon 1B media plus 100 ng/mL human FGF-10 (PeproTech, cat. 100-26), 500 nM SB-431542 (Selleckchem, cat. S1067), and 10 nM gastrin (Tocris Bioscience, cat. 3006). […]
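For viability, T/C in this document: spheroids exposed to agents for seven days before readout; 100% = DMSO vehicle control wells.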

| IC50 (compound alone, run of 09/09/2024) | IC50 (curve of compound) | Compound | viability, T/C (compound 0.0316 µM) | viability, T/C (compound 0.1 µM) | viability, T/C (compound 0.316 µM) | viability, T/C (compound 1 µM) | viability, T/C (compound 3.16 µM) | viability, T/C (compound 10 µM) | viability, T/C (compound 0.00316 µM) | viability, T/C (compound 0.01 µM) |
| --- | --- | --- | --- | --- | --- | --- | --- | --- | --- | --- |
| > 10000 nM | – | C#Cc1c(F)ccc2cc(O)cc(-c3ncc4c(N5CC6CCC(C5)N6)nc(OCC56CCCN5CC(F)C6)nc4c3F)c12 (stereo unspecified) | 108% [middle of 8 runs] | 109% [middle of 8 runs] | 107% [middle of 8 runs] | 112% [middle of 8 runs] | 111% [middle of 8 runs] | 110% [middle of 8 runs] | – | – |
| – | < 31.6 nM | CC(=O)OC12COC1CC(O)C1(C)C(=O)C(O)C3=C(C)C(OC(=O)C(O)C(NC(=O)OC(C)(C)C)c4ccccc4)CC(O)(C(OC(=O)c4ccccc4)C21)C3(C)C (stereo unspecified) | 27.8% [middle of 4 runs] | 33.9% [middle of 4 runs] | 37.7% [middle of 4 runs] | 49.9% [middle of 4 runs] | 73.4% [middle of 4 runs] | 64.2% [middle of 4 runs] | – | – |
| – | 5.72 µM [middle of 4 runs] | CC(C)NCC(C(=O)N1CCN(c2ncnc3c2C(C)CC3O)CC1)c1ccc(Cl)cc1 (stereo unspecified) | 110% [middle of 4 runs] | 99.1% [middle of 4 runs] | 97.7% [middle of 4 runs] | 84.7% [middle of 4 runs] | 62.5% [middle of 4 runs] | 39.9% [middle of 4 runs] | – | – |
| – | 1.74 µM [middle of 4 runs] | CC(Nc1ccc2c(c1)OCCn1cc(N3C(=O)OCC3C(F)F)nc1-2)C(N)=O (stereo unspecified) | 104% [middle of 4 runs] | 71.2% [middle of 4 runs] | 63.9% [middle of 4 runs] | 58.4% [middle of 4 runs] | 46.1% (2×) and 45.7% and 46% | 35.1% [middle of 4 runs] | – | – |
| – | – | CC1(O)CCCC1n1c(=O)c(C(F)F)cc2cnc(NC3CCN(S(C)(=O)=O)CC3)nc21 (stereo unspecified) | 100% [middle of 4 runs] | 83.3% [middle of 4 runs] | 69.4% [middle of 4 runs] | 65.9% [middle of 4 runs] | 58.3% [middle of 4 runs] | 21.9% [middle of 4 runs] | – | – |
| – | 1.63 µM [middle of 4 runs] | CCC(CC)c1cc(NC2CCC(N)C2)n2nccc2n1 (stereo unspecified) | 106% [middle of 4 runs] | 94.7% [middle of 4 runs] | 99.3% [middle of 4 runs] | – | 1.29% [middle of 4 runs] | 1% [middle of 4 runs] | – | – |
| – | 7.59 µM [middle of 4 runs] | C[C@@H](NC(=O)c1ncnc(N)c1Cl)c1ncc(C(=O)Nc2cc(C(F)(F)F)c(Cl)cn2)s1 | 126% [middle of 4 runs] | 132% [middle of 4 runs] | – | – | 105% [middle of 4 runs] | 32.6% [middle of 4 runs] | – | – |
| – | > 10000 nM | Cc1nc(N2CCC3(CC2)COC(C)C3N)c(CO)nc1Sc1ccnc(N)c1Cl (stereo unspecified) | 104% [middle of 4 runs] | 103% [middle of 4 runs] | 111% [middle of 4 runs] | 112% [middle of 4 runs] | 112% [middle of 4 runs] | 108% [middle of 4 runs] | – | – |
| – | > 10000 nM | NC1c2ccccc2OC12CCN(c1cnc3c(N4CCCc5ncccc54)n[nH]c3n1)CC2 (stereo unspecified) | 114% [middle of 4 runs] | 106% [middle of 4 runs] | 115% [middle of 4 runs] | 112% [middle of 4 runs] | 114% (2×) and 102% and 108% | 105% (2×) and 86.2% and 87.2% | – | – |
| – | 17 nM and 10.3 nM and 16.8 nM | Nc1ccn(C2OC(CO)C(O)C2(F)F)c(=O)n1 (stereo unspecified) | 32.3% [middle of 4 runs] | 19.3% [middle of 4 runs] | 21% [middle of 4 runs] | 22.2% [middle of 4 runs] | – | – | 103% (2×) and 77.4% and 105% | 65.5% [middle of 4 runs] |
